Molecular target: T1, CFTR (Homo sapiens, UniProt P13569, DEL508-508)
T1 construct: Primary CF airway epithelial cells were obtained from the UNC Cystic Fibrosis Tissue Procurement and Cell Culture Core; host or cells: primary CF airway epithelial cells, differentiated at the air-liquid interface
Test: Equivalent current assay in primary CF airway epithelial cells (NAUC, combination with 1st site corrector FDL169 or VX-809)
Type: cell-based
Conditions: 37° C., 24 h

[1] = test compound 1 μM in combination with 1st site corrector VX-809 (3 μM)
[2] = test compound 3 μM in combination with 1st site corrector VX-809 (3 μM)
[3] = test compound 10 μM in combination with 1st site corrector VX-809 (3 μM)
[4] = test compound 1 μM in combination with 1st site corrector FDL169 (3 μM)
[5] = test compound 3 μM in combination with 1st site corrector FDL169 (3 μM)
[6] = test compound 10 μM in combination with 1st site corrector FDL169 (3 μM)

T1 sequence (P13569 with tags, fused parts or gaps DEL508-508): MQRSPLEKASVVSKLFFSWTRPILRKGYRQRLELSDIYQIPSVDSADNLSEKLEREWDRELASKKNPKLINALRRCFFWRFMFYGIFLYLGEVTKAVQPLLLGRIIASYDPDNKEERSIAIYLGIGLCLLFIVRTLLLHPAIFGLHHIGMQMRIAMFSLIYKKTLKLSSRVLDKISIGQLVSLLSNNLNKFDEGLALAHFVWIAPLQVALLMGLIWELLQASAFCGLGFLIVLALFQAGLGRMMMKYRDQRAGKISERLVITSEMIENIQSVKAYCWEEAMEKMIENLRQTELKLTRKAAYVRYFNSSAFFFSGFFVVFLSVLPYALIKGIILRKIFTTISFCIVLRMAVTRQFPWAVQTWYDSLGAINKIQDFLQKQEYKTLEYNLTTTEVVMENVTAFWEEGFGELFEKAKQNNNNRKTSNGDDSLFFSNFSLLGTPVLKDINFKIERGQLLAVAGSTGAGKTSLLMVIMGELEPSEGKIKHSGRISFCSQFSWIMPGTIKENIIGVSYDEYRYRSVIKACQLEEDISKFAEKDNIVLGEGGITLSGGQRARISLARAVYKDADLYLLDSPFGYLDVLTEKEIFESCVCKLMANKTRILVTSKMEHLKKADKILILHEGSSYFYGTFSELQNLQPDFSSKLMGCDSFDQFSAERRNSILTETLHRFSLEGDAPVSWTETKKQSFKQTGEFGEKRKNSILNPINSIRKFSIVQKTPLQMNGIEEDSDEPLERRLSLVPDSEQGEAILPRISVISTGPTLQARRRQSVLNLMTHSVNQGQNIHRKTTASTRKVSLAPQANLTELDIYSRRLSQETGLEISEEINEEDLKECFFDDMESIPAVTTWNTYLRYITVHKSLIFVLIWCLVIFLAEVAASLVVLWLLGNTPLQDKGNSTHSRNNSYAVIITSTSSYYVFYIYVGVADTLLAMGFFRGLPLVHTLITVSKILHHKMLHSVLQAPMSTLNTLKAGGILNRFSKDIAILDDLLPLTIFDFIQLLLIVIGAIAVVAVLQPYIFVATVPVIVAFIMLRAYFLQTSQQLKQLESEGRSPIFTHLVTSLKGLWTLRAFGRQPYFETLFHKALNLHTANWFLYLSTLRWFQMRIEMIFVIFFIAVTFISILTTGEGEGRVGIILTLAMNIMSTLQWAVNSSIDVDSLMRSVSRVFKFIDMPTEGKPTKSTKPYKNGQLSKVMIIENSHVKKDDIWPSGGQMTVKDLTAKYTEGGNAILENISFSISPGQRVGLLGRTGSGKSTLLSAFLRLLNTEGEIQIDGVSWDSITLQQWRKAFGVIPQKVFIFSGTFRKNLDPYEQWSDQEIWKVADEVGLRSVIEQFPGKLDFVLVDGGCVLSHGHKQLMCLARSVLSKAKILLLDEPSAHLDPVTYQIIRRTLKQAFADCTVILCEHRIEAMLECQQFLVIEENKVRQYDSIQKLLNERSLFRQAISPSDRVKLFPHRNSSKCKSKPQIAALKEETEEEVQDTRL

Q: What does the source list for `O=C(Nc1ccc2ccccc2n1)[C@H]1[C@H]2CC(F)(F)CN2[C@]2(C(=O)Nc3c(Cl)cc(Cl)cc32)[C@H]1C(=O)O` [Example 113]?
A: Nauc @ 1 μM [1]: + (NAUC “+” refers to an observed NAUC <140% of positive control); Nauc @ 3 μM [2]: + (NAUC “+” refers to an observed NAUC <140% of positive control); Nauc @ 10 μM [3]: + (NAUC “+” refers to an observed NAUC <140% of positive control)

Q: What does the source list for `CN(C(=O)[C@H]1[C@H]2C[C@](C)(OCc3ccccc3)CN2[C@]2(C(=O)Nc3c(Cl)cc(Cl)cc32)[C@H]1C(=O)O)c1cc(Cl)cc(Cl)c1` [Example 92]?
A: Nauc @ 1 μM [4]: + (NAUC “+” refers to an observed NAUC <140% of positive control); Nauc @ 1 μM [1]: ++ (NAUC “++” refers to an observed NAUC 170-140% of positive control); Nauc @ 3 μM [5]: ++ (NAUC “++” refers to an observed NAUC 170-140% of positive control); Nauc @ 3 μM [2]: +++ (NAUC “+++” refers to an observed NAUC>170% of positive control); Nauc @ 10 μM [6]: +++ (NAUC “+++” refers to an observed NAUC>170% of positive control); Nauc @ 10 μM [3]: +++ (NAUC “+++” refers to an observed NAUC>170% of positive control)

Q: How did the “Nauc @ 10 μM” value [3] turn out when `CN(C(=O)[C@H]1[C@H]2CC(F)(F)CN2[C@]2(C(=O)Nc3c(Cl)cc(Cl)cc32)[C@H]1C(=O)NS(=O)(=O)c1ccccc1)c1cc(Cl)cc(Cl)c1` [Example 261, (1′R,2′S,3R,7a′R)-5,7-dichloro-N1′-(3,5-dichlorophenyl)-6′,6′-difluoro-N1′-methyl-2-oxo-N2′-(phenylsulfonyl)-1′,2′,5′,6′,7′,7a′-hexahydrospiro[indoline-3,3′-pyrrolizine]-1,2′-dicarboxamide] was run?
A: Its value is “+ (NAUC “+” refers to an observed NAUC <140% of positive control)”.

Q: What does the source list for `CN(C(=O)[C@H]1[C@H]2CC(F)(F)CN2[C@]2(C(=O)Nc3c(Cl)cc(Cl)cc32)[C@H]1C(=O)O)c1ccccc1C(F)(F)F` [Example 176]?
A: Nauc @ 1 μM [4]: +++ (NAUC “+++” refers to an observed NAUC>170% of positive control); Nauc @ 3 μM [5]: +++ (NAUC “+++” refers to an observed NAUC>170% of positive control)

Q: `CC(=O)N1C(C(C)C)C(C(=O)Nc2cc(Cl)cc(Cl)c2)C(C(=O)O)C12C(=O)Nc1c(Cl)cc(Cl)cc12` (stereo not shown) [Example 38] was tested. Which “Nauc @ 3 μM” value [2] did it give?
A: Its value is “+ (NAUC “+” refers to an observed NAUC <140% of positive control)”.

Q: And the “Nauc @ 10 μM” value [3]?
A: Its value is “++ (NAUC “++” refers to an observed NAUC 170-140% of positive control)”.

Q: With `CC(C)(C)c1cccc(C(C)(C)CNC(=O)[C@H]2[C@H]3CC(F)(F)CN3[C@]3(C(=O)Nc4c(Cl)cc(Cl)cc43)[C@H]2C(=O)O)c1` (racemic) [Example 288b, rac-(1′R,2′S,3R,7a′R)-1′-((2-(3-(tert-butyl)phenyl)-2-methylpropyl)carbamoyl)-5,7-dichloro-6′,6′-difluoro-2-oxo-1′,2′,5′,6′,7′,7a′-hexahydrospiro[indoline-3,3′-pyrrolizine]-2′-carboxylic acid] as the molecule, how does the “Nauc @ 10 μM” value [3] read?
A: Its value is “+ (NAUC “+” refers to an observed NAUC <140% of positive control)”.

Q: How did the “Nauc @ 10 μM” value [3] turn out when `CN(C(=O)[C@H]1[C@H]2CC(F)(F)CN2[C@]2(C(=O)Nc3c(Cl)cc(Cl)cc32)[C@H]1C(=O)NS(C)(=O)=O)c1cc(Cl)cc(Cl)c1` (relative stereo) [Example 231, rel-(1′R,2′S,3R,7a′R)-5,7-dichloro-N1′-(3,5-dichlorophenyl)-6′,6′-difluoro-N1′-methyl-N2′-(methylsulfonyl)-2-oxo-1′,2′,5′,6′,7′,7a′-hexahydrospiro[indoline-3,3′-pyrrolizine]-1′,2′-dicarboxamide] was run?
A: The value was “+ (NAUC “+” refers to an observed NAUC <140% of positive control)”.

Q: For `CN(C(=O)[C@H]1[C@H]2CC(F)(F)CN2[C@]2(C(=O)Nc3c(Cl)cc(Cl)cc32)[C@H]1C(=O)OCOC(=O)C(C)(C)C)c1cc(Cl)cc(Cl)c1` (racemic) [Example 251a, rac-(pivaloyloxy)methyl (1′R,2′S,3R,7a′R)-5,7-dichloro-1-((3,5-dichlorophenyl)(methyl)carbamoyl)-6′,6′-difluoro-2-oxo-1′,2′,5′,6′,7′,7a′-hexahydrospiro[indoline-3,3′-pyrrolizine]-2′-carboxylate], which “Nauc @ 10 μM” value [3] is on record?
A: The value was “+ (NAUC “+” refers to an observed NAUC <140% of positive control)”.

Q: With `CC1(C)CC2C(C(=O)Nc3cc(Cl)cc(Cl)c3)C(C(=O)O)C3(C(=O)Nc4c(Cl)cc(Cl)cc43)N2C1` (stereo not shown) [Example 13] as the molecule, how does the “Nauc @ 3 μM” value [2] read?
A: The value was “+++ (NAUC “+++” refers to an observed NAUC>170% of positive control)”.

Q: What about the “Nauc @ 10 μM” value [3] of the same molecule?
A: Its value is “+++ (NAUC “+++” refers to an observed NAUC>170% of positive control)”.

Q: Which “Nauc @ 1 μM” value [1] does the source give for `O=C(Nc1cc(Cl)cc(Cl)c1)[C@H]1[C@H]2CCCN2[C@]2(C(=O)Nc3c(Cl)cc(Cl)cc32)[C@H]1C(=O)NN1CCOCC1` (relative stereo) [Example 243, (1′R,2′S,7a′R)-5,7-dichloro-N1′-(3,5-dichlorophenyl)-N2′-morpholino-2-oxo-1′,2′,5′,6′,7′,7a′-hexahydrospiro dicarboxamide] here?
A: The value was “+ (NAUC “+” refers to an observed NAUC <140% of positive control)”.

Q: What about the “Nauc @ 3 μM” value [2] of the same molecule?
A: Its value is “+ (NAUC “+” refers to an observed NAUC <140% of positive control)”.

Q: For `O=C(Nc1cc(Cl)cc(Cl)c1)C1C(C(F)(F)c2ccc(Cl)cc2)NC2(C(=O)Nc3c(Cl)cc(Cl)cc32)C1C(=O)O` (stereo not shown) [Example 67.9b, 5,7-dichloro-5,7′-((4-chlorophenyl)difluoromethyl)-4′-((3,5-dichlorophenyl)carbamoyl)-2-oxospiro[indoline-3,2′-pyrrolidine]-3′-carboxylic acid], which “Nauc @ 1 μM” value [1] is on record?
A: The value was “+ (NAUC “+” refers to an observed NAUC <140% of positive control)”.

Q: What about the “Nauc @ 3 μM” value [2] of the same molecule?
A: Its value is “++ (NAUC “++” refers to an observed NAUC 170-140% of positive control)”.

Q: What about the “Nauc @ 10 μM” value [3] of the same molecule?
A: Its value is “+++ (NAUC “+++” refers to an observed NAUC>170% of positive control)”.

Q: With `Cc1ccc(C(F)(F)C2NC3(C(=O)Nc4c(Cl)cc(Cl)cc43)C(C(=O)O)C2C(=O)Nc2cc(Cl)cc(Cl)c2)cc1` (stereo not shown) [Example 71.a] as the molecule, how does the “Nauc @ 10 μM” value [3] read?
A: The value was “+++ (NAUC “+++” refers to an observed NAUC>170% of positive control)”.

Q: With `O=C(Nc1nccc2ccccc12)[C@H]1[C@H]2CC(F)(F)CN2[C@]2(C(=O)Nc3c(Cl)cc(Cl)cc32)[C@H]1C(=O)O` [Example 122] as the molecule, how does the “Nauc @ 1 μM” value [1] read?
A: The value was “+ (NAUC “+” refers to an observed NAUC <140% of positive control)”.

Q: What about the “Nauc @ 3 μM” value [2] of the same molecule?
A: Its value is “+ (NAUC “+” refers to an observed NAUC <140% of positive control)”.

Q: Which results are given for `O=C(O)[C@H]1[C@@H](C(=O)N(c2cc(Cl)cc(Cl)c2)C2CC2)[C@H]2CC(F)(F)CN2[C@]12C(=O)Nc1c(Cl)cc(Cl)cc12` [Example 116]?
A: Nauc @ 1 μM [1]: +++ (NAUC “+++” refers to an observed NAUC>170% of positive control); Nauc @ 3 μM [2]: +++ (NAUC “+++” refers to an observed NAUC>170% of positive control); Nauc @ 10 μM [3]: ++ (NAUC “++” refers to an observed NAUC 170-140% of positive control)

Q: Which “Nauc @ 10 μM” value [3] does the source give for `O=C(Nc1cc(Cl)cc(Cl)c1)C1C2CC(F)(F)CN2C2(C(=O)Nc3c(Cl)cc(Cl)cc32)C1C(=O)O` (stereo not shown) [Example 7] here?
A: The value was “+++ (NAUC “+++” refers to an observed NAUC>170% of positive control)”.

Q: How did the “Nauc @ 1 μM” value [1] turn out when `CN(CC1(c2cccc(C(C)(C)C)c2)CC1)C(=O)[C@H]1[C@H]2CC(F)(F)CN2[C@]2(C(=O)Nc3c(Cl)cc(Cl)cc32)[C@H]1C(=O)O` [Example 112] was run?
A: Its value is “+++ (NAUC “+++” refers to an observed NAUC>170% of positive control)”.

Q: And the “Nauc @ 3 μM” value [2]?
A: The value was “+++ (NAUC “+++” refers to an observed NAUC>170% of positive control)”.

Q: And the “Nauc @ 10 μM” value [3]?
A: Its value is “+++ (NAUC “+++” refers to an observed NAUC>170% of positive control)”.

Q: What does the source list for `O=C(O)[C@H]1[C@@H](C(=O)N(c2cc(Cl)cc(Cl)c2)C2CCC2)[C@H]2CC(F)(F)CN2[C@]12C(=O)Nc1c(Cl)cc(Cl)cc12` [Example 152]?
A: Nauc @ 1 μM [4]: +++ (NAUC “+++” refers to an observed NAUC>170% of positive control); Nauc @ 3 μM [5]: +++ (NAUC “+++” refers to an observed NAUC>170% of positive control); Nauc @ 10 μM [6]: ++ (NAUC “++” refers to an observed NAUC 170-140% of positive control)

Q: Which results are given for `O=C(Nc1ccc2ncccc2c1)[C@H]1[C@H]2CC(F)(F)CN2[C@]2(C(=O)Nc3c(Cl)cc(Cl)cc32)[C@H]1C(=O)O` [Example 120]?
A: Nauc @ 1 μM [1]: + (NAUC “+” refers to an observed NAUC <140% of positive control); Nauc @ 3 μM [2]: + (NAUC “+” refers to an observed NAUC <140% of positive control); Nauc @ 10 μM [3]: + (NAUC “+” refers to an observed NAUC <140% of positive control)

Q: How did the “Nauc @ 3 μM” value [2] turn out when `O=C(Nc1cc(Cl)c(OC(F)F)c(Cl)c1)C1C2CC3(CC3)CN2C2(C(=O)Nc3c(Cl)cc(Cl)cc32)C1C(=O)O` (stereo not shown) [Example 12] was run?
A: Its value is “+++ (NAUC “+++” refers to an observed NAUC>170% of positive control)”.

Q: What about the “Nauc @ 10 μM” value [3] of the same molecule?
A: Its value is “+++ (NAUC “+++” refers to an observed NAUC>170% of positive control)”.

Q: Which results are given for `O=C(Nc1cc(Cl)cc(Cl)c1)C1C2C[C@@](O)(C(F)(F)F)CN2C2(C(=O)Nc3c(Cl)cc(Cl)cc32)C1C(=O)O` (stereo partly shown) [Example 56]?
A: Nauc @ 3 μM [2]: +++ (NAUC “+++” refers to an observed NAUC>170% of positive control); Nauc @ 10 μM [3]: +++ (NAUC “+++” refers to an observed NAUC>170% of positive control)

Q: `O=C(O)[C@H]1[C@@H](C(=O)N(CC2CCCC2)c2cccc(C(F)(F)F)c2)[C@H]2CC(F)(F)CN2[C@]12C(=O)Nc1c(Cl)cc(Cl)cc12` [Example 181] was tested. Which “Nauc @ 1 μM” value [4] did it give?
A: The value was “++ (NAUC “++” refers to an observed NAUC 170-140% of positive control)”.

Q: What about the “Nauc @ 3 μM” value [5] of the same molecule?
A: Its value is “+++ (NAUC “+++” refers to an observed NAUC>170% of positive control)”.
